Experimental data: patent EP4745137A1 (Gluetacs Therapeutics (Shanghai) Co., Ltd., priority 2023, dated 2025)

What was measured:
MV-4-11 = test: Tumor cell proliferation inhibition (CellTiter-Meiluncell Luminescent Cell Viability Assay), MV-4-11; settings: Homo sapiens, MV4-11, read-out: inhibitory activity (IC50, nM) against tumor cells proliferation, MV-4-11
IKZF1 = target: T1, IKZF1 (Homo sapiens, UniProt Q13422+Q96SW2); test: Western-blot assay of substrate protein degradation in hPBMCs, IKZF1; assay type: cell-based; settings: 24 hours of compound treatment, 50 nM and 500 nM tested (concentration behind the class not stated)
T1 construct: endogenous in cells; host or cells: hPBMCs (Milecell Biotechnologies)

IKZF2 = target: T2, IKZF2 (Homo sapiens, UniProt Q96SW2+Q9UKS7); test: Western-blot assay of substrate protein degradation in hPBMCs, IKZF2; assay type: cell-based; settings: 24 hours of compound treatment, 50 nM and 500 nM tested (concentration behind the class not stated)
T2 construct: endogenous in cells; host or cells: hPBMCs (Milecell Biotechnologies)

GSPT1 = target: T3, GSPT1 (Homo sapiens, UniProt P15170+Q96SW2); test: Western-blot assay of substrate protein degradation in hPBMCs, GSPT1; assay type: cell-based; settings: 24 hours of compound treatment, 50 nM and 500 nM tested (concentration behind the class not stated)
T3 construct: endogenous in cells; host or cells: hPBMCs (Milecell Biotechnologies)

WEE1 = target: T4, WEE1 (Homo sapiens, UniProt P30291+Q96SW2); test: Western-blot assay of substrate protein degradation in hPBMCs, WEE1; assay type: cell-based; settings: 24 hours of compound treatment, 50 nM and 500 nM tested (concentration behind the class not stated)
T4 construct: endogenous in cells; host or cells: hPBMCs (Milecell Biotechnologies)

IKZF3 = target: T5, IKZF3 (Homo sapiens, UniProt Q96SW2+Q9UKT9); test: Western-blot assay of substrate protein degradation in hPBMCs, IKZF3; assay type: cell-based; settings: 24 hours of compound treatment, 50 nM and 500 nM tested (concentration behind the class not stated)
T5 construct: endogenous in cells; host or cells: hPBMCs (Milecell Biotechnologies)

CK1α = target: T6, CK1α (Homo sapiens, UniProt P48729+Q96SW2); test: Western-blot assay of substrate protein degradation in hPBMCs, CK1α; assay type: cell-based; settings: 24 hours of compound treatment, 50 nM and 500 nM tested (concentration behind the class not stated)
T6 construct: endogenous in cells; host or cells: hPBMCs (Milecell Biotechnologies)

[1] = target: T7, human Cereblon WT GST-tagged protein (Homo sapiens, UniProt Q96SW2); test: CRBN-binding affinity by HTRF (CEREBLON BINDING kit); settings: HTRF inhibitory activity, CEREBLON BINDING kit; read-out: HTRF IC50
T7 construct: purchased CISBIO 64BDCRBNPEH
T7 sequence (Q96SW2 whole entry): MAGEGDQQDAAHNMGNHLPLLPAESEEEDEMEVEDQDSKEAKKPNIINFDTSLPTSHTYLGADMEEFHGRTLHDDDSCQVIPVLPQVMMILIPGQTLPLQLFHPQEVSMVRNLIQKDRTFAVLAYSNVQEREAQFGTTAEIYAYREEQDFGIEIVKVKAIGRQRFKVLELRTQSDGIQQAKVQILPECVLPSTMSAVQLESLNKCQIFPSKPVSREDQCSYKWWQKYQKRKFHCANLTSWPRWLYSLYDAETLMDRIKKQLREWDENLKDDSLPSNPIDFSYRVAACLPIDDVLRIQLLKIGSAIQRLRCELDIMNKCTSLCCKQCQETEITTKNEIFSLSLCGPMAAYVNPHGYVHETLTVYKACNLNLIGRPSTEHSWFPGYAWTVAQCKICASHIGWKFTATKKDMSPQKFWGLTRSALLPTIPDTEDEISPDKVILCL

T6 sequence (P48729 whole entry): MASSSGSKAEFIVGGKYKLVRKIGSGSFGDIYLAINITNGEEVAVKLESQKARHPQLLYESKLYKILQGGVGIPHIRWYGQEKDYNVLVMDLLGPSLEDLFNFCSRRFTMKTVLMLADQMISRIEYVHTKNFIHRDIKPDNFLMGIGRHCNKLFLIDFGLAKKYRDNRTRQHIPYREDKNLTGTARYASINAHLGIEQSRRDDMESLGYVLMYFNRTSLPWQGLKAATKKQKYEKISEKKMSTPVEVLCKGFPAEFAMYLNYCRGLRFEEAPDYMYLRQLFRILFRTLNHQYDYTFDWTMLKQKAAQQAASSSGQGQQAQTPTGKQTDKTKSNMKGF
T6 sequence (Q96SW2 whole entry): as the sequence (Q96SW2 whole entry) above
T6 sequence (Q16531 whole entry partner): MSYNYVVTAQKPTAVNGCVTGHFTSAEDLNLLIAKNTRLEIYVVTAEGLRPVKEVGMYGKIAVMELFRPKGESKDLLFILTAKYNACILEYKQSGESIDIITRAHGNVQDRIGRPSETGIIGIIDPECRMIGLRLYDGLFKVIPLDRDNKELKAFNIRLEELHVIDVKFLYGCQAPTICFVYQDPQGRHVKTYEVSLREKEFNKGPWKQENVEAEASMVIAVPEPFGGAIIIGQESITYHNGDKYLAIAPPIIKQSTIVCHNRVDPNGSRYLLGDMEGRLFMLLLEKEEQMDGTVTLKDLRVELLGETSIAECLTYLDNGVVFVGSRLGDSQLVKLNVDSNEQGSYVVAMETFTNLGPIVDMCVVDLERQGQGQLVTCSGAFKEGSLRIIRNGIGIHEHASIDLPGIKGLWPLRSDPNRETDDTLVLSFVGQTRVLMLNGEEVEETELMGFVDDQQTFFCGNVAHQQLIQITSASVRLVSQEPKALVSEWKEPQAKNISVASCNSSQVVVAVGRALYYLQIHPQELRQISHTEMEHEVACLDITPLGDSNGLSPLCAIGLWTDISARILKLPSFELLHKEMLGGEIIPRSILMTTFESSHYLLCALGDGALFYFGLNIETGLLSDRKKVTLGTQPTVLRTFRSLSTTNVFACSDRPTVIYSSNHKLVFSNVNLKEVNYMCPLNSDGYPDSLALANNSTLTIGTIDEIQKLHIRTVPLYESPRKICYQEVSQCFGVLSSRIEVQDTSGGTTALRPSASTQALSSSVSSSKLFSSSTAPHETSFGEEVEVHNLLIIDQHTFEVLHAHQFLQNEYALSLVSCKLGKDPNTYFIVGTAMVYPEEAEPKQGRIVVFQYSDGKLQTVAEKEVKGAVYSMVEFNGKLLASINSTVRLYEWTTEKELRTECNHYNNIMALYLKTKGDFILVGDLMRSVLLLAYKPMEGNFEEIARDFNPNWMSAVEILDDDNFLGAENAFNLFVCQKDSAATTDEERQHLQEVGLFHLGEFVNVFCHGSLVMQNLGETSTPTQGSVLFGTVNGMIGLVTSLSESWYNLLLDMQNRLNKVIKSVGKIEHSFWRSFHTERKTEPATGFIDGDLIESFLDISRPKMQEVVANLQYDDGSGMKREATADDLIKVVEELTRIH
T3 sequence (P15170 whole entry): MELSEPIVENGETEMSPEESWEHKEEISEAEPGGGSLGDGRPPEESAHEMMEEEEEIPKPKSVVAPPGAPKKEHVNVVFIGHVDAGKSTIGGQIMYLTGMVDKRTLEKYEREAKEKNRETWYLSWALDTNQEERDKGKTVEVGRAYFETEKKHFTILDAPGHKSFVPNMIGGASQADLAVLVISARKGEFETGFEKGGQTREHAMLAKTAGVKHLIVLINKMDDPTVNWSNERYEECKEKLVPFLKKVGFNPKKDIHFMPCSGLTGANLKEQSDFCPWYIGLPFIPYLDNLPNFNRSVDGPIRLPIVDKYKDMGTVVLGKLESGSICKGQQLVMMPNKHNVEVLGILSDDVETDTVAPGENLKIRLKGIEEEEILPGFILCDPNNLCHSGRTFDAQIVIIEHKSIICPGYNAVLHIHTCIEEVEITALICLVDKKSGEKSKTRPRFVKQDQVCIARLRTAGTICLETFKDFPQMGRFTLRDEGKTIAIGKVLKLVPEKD
T3 sequence (Q96SW2 whole entry): as the sequence (Q96SW2 whole entry) above
T3 sequence (Q16531 whole entry partner): as the sequence (Q16531 whole entry partner) above
T5 sequence (Q9UKT9 whole entry): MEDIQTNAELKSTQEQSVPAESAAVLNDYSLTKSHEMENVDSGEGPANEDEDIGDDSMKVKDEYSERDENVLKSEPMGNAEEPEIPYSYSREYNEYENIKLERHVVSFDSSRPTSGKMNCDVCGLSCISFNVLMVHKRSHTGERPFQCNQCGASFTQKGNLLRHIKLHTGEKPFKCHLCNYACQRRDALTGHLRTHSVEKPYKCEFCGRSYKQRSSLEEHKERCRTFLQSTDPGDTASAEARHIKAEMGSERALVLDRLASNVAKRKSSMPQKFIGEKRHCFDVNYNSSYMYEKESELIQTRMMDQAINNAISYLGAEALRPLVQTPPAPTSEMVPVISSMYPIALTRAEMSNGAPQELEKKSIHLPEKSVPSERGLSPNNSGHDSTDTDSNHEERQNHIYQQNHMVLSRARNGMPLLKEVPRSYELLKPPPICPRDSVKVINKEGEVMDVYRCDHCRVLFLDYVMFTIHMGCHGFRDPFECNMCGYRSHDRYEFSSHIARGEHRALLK
T5 sequence (Q96SW2 whole entry): as the sequence (Q96SW2 whole entry) above
T5 sequence (Q16531 whole entry partner): as the sequence (Q16531 whole entry partner) above
T1 sequence (Q13422 whole entry): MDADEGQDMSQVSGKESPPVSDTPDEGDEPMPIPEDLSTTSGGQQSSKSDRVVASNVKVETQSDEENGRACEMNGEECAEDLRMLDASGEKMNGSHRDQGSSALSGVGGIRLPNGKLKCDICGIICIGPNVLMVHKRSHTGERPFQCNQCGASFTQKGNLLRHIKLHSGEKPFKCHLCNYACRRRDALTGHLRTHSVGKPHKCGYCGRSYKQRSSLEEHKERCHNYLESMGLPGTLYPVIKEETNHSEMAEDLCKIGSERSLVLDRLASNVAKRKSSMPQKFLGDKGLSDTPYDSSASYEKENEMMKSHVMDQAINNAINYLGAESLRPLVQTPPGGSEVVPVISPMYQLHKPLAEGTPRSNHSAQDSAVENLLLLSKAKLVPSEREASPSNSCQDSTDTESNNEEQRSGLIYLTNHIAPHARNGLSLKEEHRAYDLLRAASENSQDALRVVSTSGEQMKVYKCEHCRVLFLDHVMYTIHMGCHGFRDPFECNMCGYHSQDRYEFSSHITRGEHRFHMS
T1 sequence (Q96SW2 whole entry): as the sequence (Q96SW2 whole entry) above
T1 sequence (Q16531 whole entry partner): as the sequence (Q16531 whole entry partner) above
T2 sequence (Q9UKS7 whole entry): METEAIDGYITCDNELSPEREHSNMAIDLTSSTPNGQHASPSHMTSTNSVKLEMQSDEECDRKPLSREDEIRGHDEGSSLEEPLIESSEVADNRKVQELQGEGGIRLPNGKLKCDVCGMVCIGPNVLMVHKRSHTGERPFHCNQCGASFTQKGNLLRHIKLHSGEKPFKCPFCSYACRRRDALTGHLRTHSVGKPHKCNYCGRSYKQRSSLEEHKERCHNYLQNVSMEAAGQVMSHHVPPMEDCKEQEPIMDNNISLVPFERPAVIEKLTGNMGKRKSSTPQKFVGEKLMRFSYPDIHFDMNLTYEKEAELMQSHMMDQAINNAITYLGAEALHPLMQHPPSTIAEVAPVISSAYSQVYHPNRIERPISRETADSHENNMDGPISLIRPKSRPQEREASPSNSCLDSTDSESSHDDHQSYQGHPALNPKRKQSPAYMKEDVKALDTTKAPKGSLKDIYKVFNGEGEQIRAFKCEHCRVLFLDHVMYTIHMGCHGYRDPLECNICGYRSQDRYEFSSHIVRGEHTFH
T2 sequence (Q96SW2 whole entry): as the sequence (Q96SW2 whole entry) above
T2 sequence (Q16531 whole entry partner): as the sequence (Q16531 whole entry partner) above

| Compound | IC50 (MV-4-11) [nM] | IC50 [1] [nM] | IKZF 1 substrate protein remaining % (IKZF1) | IKZF2 substrate protein remaining % (IKZF2) | GSPT1 substrate protein remaining % (GSPT1) | Weel substrate protein remaining % (WEE1) | IKZF3 substrate protein remaining % (IKZF3) | CK1a substrate protein remaining % (CK1α) |
| --- | --- | --- | --- | --- | --- | --- | --- | --- |
| O=C1CCC(N2C(=O)c3ccc(CN4CC=C(c5ccnc(F)c5F)CC4)cc3C2=O)C(=O)N1 (stereo not shown) [GT-06614, 5-((2',3'-difluoro-3,6-dihydro-[4,4'-bipyridin]-1(2H)-yl)methyl)-2-(2,6-dioxopiperidin-3-yl)isoindoline-1,3-dione] | 10 to 50 |  | B (80%< substrate protein remaining %≤ 100%) | B (80%< substrate protein remaining %≤ 100%) | A (0% ≤ substrate protein remaining % ≤ 80%) | B (80%< substrate protein remaining %≤ 100%) | B (80%< substrate protein remaining %≤ 100%) | A (0% ≤ substrate protein remaining % ≤ 80%) |
| O=C1CCC(N2C(=O)c3ccc(CN4CCN(c5cc(Cl)nnc5Cl)CC4)cc3C2=O)C(=O)N1 (stereo not shown) [GT-06625, 5-((4-(3,6-dichloropyridazin-4-yl)piperazin-1-yl)methyl)-2-(2,6-dioxopiperidin-3-yl)isoindoline-1,3-dione] | 100 to 500 |  | B (80%< substrate protein remaining %≤ 100%) | B (80%< substrate protein remaining %≤ 100%) | A (0% ≤ substrate protein remaining % ≤ 80%) | B (80%< substrate protein remaining %≤ 100%) | B (80%< substrate protein remaining %≤ 100%) | B (80%< substrate protein remaining %≤ 100%) |
| O=C1CCC(N2C(=O)c3ccc(CN4CCC(N5CCc6cc(F)ccc65)CC4)cc3C2=O)C(=O)N1 (stereo not shown) [GT-06637, 2-(2,6-dioxopiperidin-3-yl)-5-((4-(5-fluoroindolin-1-yl)piperidin-1-yl)methyl)isoindoline-1,3-dione] | 50 to 100 |  | A (0% ≤ substrate protein remaining % ≤ 80%) | A (0% ≤ substrate protein remaining % ≤ 80%) | A (0% ≤ substrate protein remaining % ≤ 80%) | A (0% ≤ substrate protein remaining % ≤ 80%) | A (0% ≤ substrate protein remaining % ≤ 80%) | A (0% ≤ substrate protein remaining % ≤ 80%) |
| O=C1CCC(N2C(=O)c3ccc(CN4CCC(n5cnc6cc(F)ccc65)CC4)cc3C2=O)C(=O)N1 (stereo not shown) [GT-06638, 2-(2,6-dioxopiperidin-3-yl)-5-((4-(5-fluoro-1H-benzo[d]imidazol-1-yl)piperidin-1-yl)methyl)isoindoline-1,3-dione] | 500 to 1000 |  | B (80%< substrate protein remaining %≤ 100%) | B (80%< substrate protein remaining %≤ 100%) | A (0% ≤ substrate protein remaining % ≤ 80%) | A (0% ≤ substrate protein remaining % ≤ 80%) | B (80%< substrate protein remaining %≤ 100%) | A (0% ≤ substrate protein remaining % ≤ 80%) |
| O=C1CCC(N2C(=O)c3ccc(CN4CCN(c5nc(N6CCOCC6)nc6c5SCC6)CC4)cc3C2=O)C(=O)N1 (stereo not shown) [GT-06712, 2-(2,6-dioxopiperidin-3-yl)-5-((4-(2-morpholino-6,7-dihydrothieno[3,2-d]pyrimidin-4-yl)piperazin-1-yl)methyl)isoindoline-1,3-dione] | 100 to 500 |  | B (80%< substrate protein remaining %≤ 100%) | B (80%< substrate protein remaining %≤ 100%) | A (0% ≤ substrate protein remaining % ≤ 80%) | B (80%< substrate protein remaining %≤ 100%) | B (80%< substrate protein remaining %≤ 100%) | B (80%< substrate protein remaining %≤ 100%) |

Further lines, with some results ahead:

| IC50 (MV-4-11) [nM] | IC50 [1] [nM] | Compound | IKZF 1 substrate protein remaining % (IKZF1) | IKZF2 substrate protein remaining % (IKZF2) | GSPT1 substrate protein remaining % (GSPT1) | Weel substrate protein remaining % (WEE1) | IKZF3 substrate protein remaining % (IKZF3) | CK1a substrate protein remaining % (CK1α) |
| --- | --- | --- | --- | --- | --- | --- | --- | --- |
| 100 to 500 |  | O=C1CCC(N2C(=O)c3ccc(CN4CCN(c5ccnc(Cl)c5F)CC4)cc3C2=O)C(=O)N1 (stereo not shown) [GT-06620, 5-((4-(2-chloro-3-fluoropyridin-4-yl)piperazin-1-yl)methyl)-2-(2,6-dioxopiperidin-3-yl)isoindoline-1,3-dione] | B (80%< substrate protein remaining %≤ 100%) | B (80%< substrate protein remaining %≤ 100%) | A (0% ≤ substrate protein remaining % ≤ 80%) | B (80%< substrate protein remaining %≤ 100%) | A (0% ≤ substrate protein remaining % ≤ 80%) | B (80%< substrate protein remaining %≤ 100%) |
| 100 to 500 |  | O=C1CCC(N2C(=O)c3ccc(CN4CCN(c5nsc6cc(F)ccc56)CC4)cc3C2=O)C(=O)N1 (stereo not shown) [GT-06631, 2-(2,6-dioxopiperidin-3-yl)-5-((4-(6-fluorobenzo[d]isothiazol-3-yl)piperazin-1-yl)methyl)isoindoline-1,3-dione] | B (80%< substrate protein remaining %≤ 100%) | B (80%< substrate protein remaining %≤ 100%) | A (0% ≤ substrate protein remaining % ≤ 80%) | A (0% ≤ substrate protein remaining % ≤ 80%) | B (80%< substrate protein remaining %≤ 100%) | A (0% ≤ substrate protein remaining % ≤ 80%) |
| 100 to 500 | 1500 to 1900 | Cc1nc(C2=CCN(Cc3ccc4c(c3)C(=O)N(C3CCC(=O)NC3=O)C4=O)CC2)c2c3c(sc2n1)CCCC3 (stereo not shown) [GT-06679, 2-(2,6-dioxopiperidin-3-yl)-5-((4-(2-methyl-5,6,7,8-tetrahydrobenzo[4,5]thieno[2,3-d]pyrimidin-4-yl)-3,6-dihydropyridin-1(2H)-yl)methyl)isoindoline-1,3-dione] | B (80%< substrate protein remaining %≤ 100%) | B (80%< substrate protein remaining %≤ 100%) | B (80%< substrate protein remaining %≤ 100%) | A (0% ≤ substrate protein remaining % ≤ 80%) | A (0% ≤ substrate protein remaining % ≤ 80%) | B (80%< substrate protein remaining %≤ 100%) |
| 10 to 50 |  | O=C1CCC(N2C(=O)c3ccc(CN4CCN(c5nc(N6CCOCC6)nc6ccsc56)CC4)cc3C2=O)C(=O)N1 (stereo not shown) [GT-06717, 2-(2,6-dioxopiperidin-3-yl)-5-((4-(2-morpholinothieno[3,2-d]pyrimidin-4-yl)piperazin-1-yl)methyl)isoindoline-1,3-dione] | A (0% ≤ substrate protein remaining % ≤ 80%) | B (80%< substrate protein remaining %≤ 100%) | A (0% ≤ substrate protein remaining % ≤ 80%) | A (0% ≤ substrate protein remaining % ≤ 80%) | B (80%< substrate protein remaining %≤ 100%) | B (80%< substrate protein remaining %≤ 100%) |
